Results published in doi:10.1101/2025.09.09.675175v1 (biorxiv, 2025).

Tests used:
GdpP-C (GdpP313-656) [1] = molecular target: T1, GdpP-C (GdpP313-656) (Staphylococcus aureus, UniProt Q2G2T6); experiment: isothermal titration calorimetry; assay type: binding
T1 sequence (Q2G2T6 313-655): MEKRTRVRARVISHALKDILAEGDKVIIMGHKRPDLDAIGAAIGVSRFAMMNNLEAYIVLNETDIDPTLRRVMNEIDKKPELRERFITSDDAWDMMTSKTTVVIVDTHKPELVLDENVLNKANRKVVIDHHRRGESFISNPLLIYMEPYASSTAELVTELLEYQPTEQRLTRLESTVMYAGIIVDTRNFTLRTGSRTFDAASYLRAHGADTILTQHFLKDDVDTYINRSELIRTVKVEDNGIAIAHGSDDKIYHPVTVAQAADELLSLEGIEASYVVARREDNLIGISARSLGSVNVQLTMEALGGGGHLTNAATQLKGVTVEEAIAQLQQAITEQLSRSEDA

GdpP-C (GdpP313-656) [2] = molecular target: T1, GdpP-C (GdpP313-656); experiment: phosphomolybdate blue Pi release, Michaelis-Menten fit; assay type: biochemical

`CC(=O)CCCCn1c(=O)c2c(ncn2C)n(C)c1=O` [pentoxifylline] gave a Kd (GdpP-C (GdpP313-656) [1]) of 33.2 µM and a Ki (GdpP-C (GdpP313-656) [2]) of 68.3 µM.
